Measured values reported in PMC3559838 (PLoS ONE, 2013).
One block for each molecule: values may come before it.

Legend:
[1] = Acidic stability test; format: physicochemical; details: for variation in concentrations between beginning and after 24 h: 37°C, acidic solutions pH 2.6–6.5; for stability in acidic solutions: 24 h incubation at 37°C, pH 2.6–6.5
Procedure: 1 mg/mL of belinostat-G and vorinostat-G was prepared in various vehicles with different pH values. These vehicles included 10 mM ammonium acetate (pH = 6.5), 10 mM ammonium formate (pH = 6.0), 0.1% acetic acid (pH = 3.2) and 0.1% formic acid (pH = 2.6). All of these test samples were incubated at 37°C for 24 h. Milli Q water (pH = 5.5) was used as control solution which was stored in −20°C. All the samples were analyzed by LC-MS/MS to obtain the values of peak area for belinostat-G and vorinostat-G. The acidic stability of both conjugated compounds was evaluated through comparison of peak area ratio of test samples versus control.

[2] = test system: HepG2 cells; assay: Gentian Violet viability staining, 24-well plates; format: cell-based, human; details: 0–10 µM, 72 h
Procedure: (§1) To the other plate, equal molar concentrations of belinostat-G were added similarly. After 72 h, cells were stained with Gentian Violet paint (0.5% w/v; B.P.) and assessed for viability. […] After incubating 24 h, 100-µL drug solution or blank medium was added into each well of 96-well plates. 72 h later, 20 µL of MTS/PES was added into each well for incubation for 3 h. OD values are measured on wavelength 490 nm. Cell growth inhibition was calculated based on the […] with subtraction of background reading for only medium containing wells. The growth inhibition was defined as the percentage of the average […] from drug-treated wells over that from control wells without treatment. The experiment was done in triplicates. IC50 values were calculated using GraphPad PRISM software (GraphPad Software, Inc., La Jolla, CA, USA).

[3] = test system: HepG2 cells; assay: MTS growth inhibition assay; format: cell-based, human; details: HepG2, 72 h
Procedure: as §1

[4] = Pharmacokinetics after 30 min i.v. infusion, phase I trial in hepatocellular carcinoma patients; format: in vivo, human; details: for Relative Exposure, Bel-G/Bel AUC ratio: AUC0–24 h molar ratio; for relative systemic exposure of belinostat glucuronide versus belinostat: human plasma, molar concentration AUC ratio
Procedure: This multicentre phase I trial of belinostat was done in Hong Kong and Singapore. All patients provided written informed consent according to Good Clinical Practice guidelines, and the protocol was approved by the institutional review boards of Prince of Wales Hospital, Hong Kong and National University Hospital, Singapore.
Venous blood samples had been collected in heparinized tubes. Collected blood samples were centrifuged at 3000 g for 10–15 min and the plasma (supernatant) was separated from the cell pellet and stored in plain tubes at –80°C till analysis. […] Briefly, vorinostat-G was used as the internal standard for belinostat-G. The mass spectrometer was operated in positive ion mode with the optimal mass transitions of belinostat-G: m/z 495>93 and vorinostat-G: m/z 441>232, respectively. The analytical method was well validated with good linearity (coefficient of determination, r^2≥0.999) in the range of 1–100 µM for belinostat-G.
Pharmacokinetic parameters were estimated based on non-compartmental analysis model using WinNonlin software version 5.3 (Pharmsight, Sunnyvale, CA, USA). […] One way analysis of variance (ANOVA) was used to determine the significance among the genotypes with Tukey posthoc tests for adjustment for comparison between individual groups. A value of p<0.05 was considered to be significant.

[5] = substrate: O=C(/C=C/c1cccc(S(=O)(=O)Nc2ccccc2)c1)NO; assay: UGT supersome screening and kinetic analysis; format: in vitro ADME, human; details: other: UGT1A1 supersomes, 10 to 750 µM substrate, Michaelis-Menten

variation in concentrations between beginning and after 24 h [1]: < 4%
stability in acidic solutions [1]: stable
degradation ([1]; pH 2.6, 37°C, 24 h): 7%
IC50 (MTS) [3]: cannot be converged
Relative Exposure, Bel-G/Bel AUC ratio ([4]; 600 mg/m^2): 4.79±0.46
Relative Exposure, Bel-G/Bel AUC ratio ([4]; 900 mg/m^2): 4.22±0.15
Relative Exposure, Bel-G/Bel AUC ratio ([4]; 1200 mg/m^2): 4.82±1.80
Relative Exposure, Bel-G/Bel AUC ratio ([4]; 1400 mg/m^2): 4.13±0.68
relative systemic exposure of belinostat glucuronide versus belinostat ([4]; listed as belinostat glucuronide): more than 4 fold
relative systemic exposure of belinostat glucuronide versus belinostat ([4]; listed as belinostat-G): 4 fold
Molecule: O=C(/C=C/c1cccc(S(=O)(=O)Nc2ccccc2)c1)NO[C@@H]1O[C@H](C(=O)O)[C@@H](O)[C@H](O)[C@H]1O [Belinostat-G, Belinostat glucuronide]
cytotoxicity / cell viability (staining) [2]: did not seem to affect cell viability

variation in concentrations between beginning and after 24 h [1]: < 4%
stability in acidic solutions [1]: stable
Molecule: O=C(CCCCCCC(=O)Nc1ccccc1)NO[C@@H]1O[C@H](C(=O)O)[C@@H](O)[C@H](O)[C@H]1O [vorinostat-G, Vorinostat glucuronide]

B1: UGT1A1 (Homo sapiens) (protein)
chain: HAGKILLIPVDGSHWLSMLGAIQQLQQRGHEIVVLAPDASLYIRDGAFYTLKTYPVPFQREDVKESFVSLGHNVFENDSFLQRVIKTYKKIKKDSAMLLSGCSHLLHNKELMASLAESSFDVMLTDPFLPCSPIVAQYLSLPTVFFLHALPCSLEFEATQCPNPFSYVPRPLSSHSDHMTFLQRVKNMLIAFSQNFLCDVVYSPYATLASEFLQREVTVQDLLSSASVWLFRSDFVKDYPRPIMPNMVFVGGINCLHQNPLSQEFEAYINASGEHGIVVFSLGSMVSEIPEKKAMAIADALGKIPQTVLWRYTGTRPSNLANNTILVKWLPQNDLLGHPMTRAFITHAGSHGVYESICNGVPMVMMPLFGDQMDNAKRMETKGAGVTLNVLEMTSEDLENALKAVINDKSYKENIMRLSSLHKDRPVEPLDLAVFWVEFVMRHKGAPHLRPAAHDLTWYQYHSLDVIGFLLAVVLTVAFITFKCCAYGYRKCLGKKGRVKKAHKSKTH
notes: purchased BD Gentest
Km [5]: 99.6 µM
Vmax [5]: 353.1 pmol/min/mg protein
Vmax/Km [5]: 3.5 µL/min/mg protein
